US20180065917A1, “IMMUNE CHECKPOINT INHIBITORS, COMPOSITIONS AND METHODS THEREOF” (Polaris Pharmaceuticals, Inc., priority 2016, published 2018)
Counter-ions that a name gives are not always drawn.

Legend:
[1] = molecular target: T1, PD-L1/PD-1 complex formation (Homo sapiens, UniProt Q9NZQ7); test: PD-L1/PD-1 Interaction Assay (ELISA platform); format: binding; details: human PD-1-Fc coated plates, PD-L1-Fc-biotin 0.1 μg/ml, compounds pre-incubated 2 hours
T1 construct: purchased BPS Bioscience
Protocol: The ability of compounds to block PD-L1/PD-1 complex formation was evaluated using biochemical interaction assay based on the ELISA platform.
EIA/RIA high binding 96-well plates (Costar) were coated with human PD-1-Fc protein diluted in PBS to 0.5 μg/ml overnight at 4° C. The PD-1-Fc coated plates were washed in PBST and blocked in blocking buffer (2% BSA in PBST). Serially diluted compounds were pre-incubated with PD-L1-Fc-biotin (0.1 μg/ml final) for 2 hours on a shaker at room temperature. The PD-1-Fc coated plates were washed with PBST and solutions containing PD-L1 and compounds were added to the plates. The PD-1-Fc coated plates were incubated with PD-L1 and compound solution for 2 hours on a shaker at room temperature. After the incubation unbound PD-L1 was washed away with PBST and plates were incubated with the blocking buffer for 10 minutes. The bound PD-L1-Fc-biotin was detected with streptavidin-HRP and TMB substrate. The plates were read at OD450 nm in a plate reader (i3 from Molecular Devices) and percentages of inhibition of PD-L1/PD-1 complex formation were calculated.
PD-1-Fc protein was made at Polaris and PD-L1-Fc was purchased from BPS Bioscience.

T1 sequence (Q9NZQ7 19-239 limits assumed, one chain of several): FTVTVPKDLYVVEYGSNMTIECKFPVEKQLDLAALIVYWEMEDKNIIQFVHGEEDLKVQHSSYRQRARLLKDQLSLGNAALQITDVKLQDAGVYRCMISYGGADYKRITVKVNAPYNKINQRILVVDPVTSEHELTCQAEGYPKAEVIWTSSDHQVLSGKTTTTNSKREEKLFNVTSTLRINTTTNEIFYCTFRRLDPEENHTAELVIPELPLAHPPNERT

Row | Structure (SMILES) | IC50 [1] | melting point
1 | Cc1c(COc2ccc(CN3C[C@@H](O)C[C@H]3C(=O)O)cc2Br)cccc1-c1cccc(COc2ccc(CN3C[C@@H](O)C[C@H]3C(=O)O)cc2Br)c1C [Example 7, (2S,2'S,4S,4′S)-1,1′-(((((2,2′-Dimethyl-[1,1′-biphenyl]-3,3′-diyl)bis(methylene))bis(oxy))bis(3-bromo-4,1-phenylene))bis(methylene))bis(4-hydroxypyrrolidine-2-carboxylic acid)] | 0.1 to 10 nM | 260 to 264 °C
2 | O=C(O)[C@@H]1CCCCN1Cc1ccc(OCc2cccc(-c3cccc(COc4ccc(CN5CCCC[C@H]5C(=O)O)cc4Br)c3)c2)c(Br)c1 [Example 8, (2S,2′S)-1,1′-(((([1,1′-Biphenyl]-3,3′-diylbis(methylene))bis(oxy))bis(3-bromo-4,1-phenylene))bis(methylene))bis(piperidine-2-carboxylic acid)] | 1010 to 30000 nM | 306 to 310 °C
3 | Cc1cc(CN2CCCC[C@H]2C(=O)O)ccc1OCc1cccc(-c2cccc(COc3ccc(CN4CCCC[C@H]4C(=O)O)cc3C)c2C)c1C [Example 11, (2S,2′S)-1,1′-(((((2,2′-Dimethyl-[1,1′-biphenyl]-3,3′-diyl)bis(methylene))bis(oxy))bis(3-methyl-4,1-phenylene))bis(methylene))bis(piperidine-2-carboxylic acid)] | 11 to 100 nM | 191 to 195 °C
4 | Cc1c(COc2ccc(CN3CCCC[C@H]3C(=O)O)cc2Br)cccc1-c1cccc(COc2ccc(CN3CCCC[C@H]3C(=O)O)cc2Br)c1C [Example 1, (2S,2′S)-1,1′-(((((2,2′-dimethyl-[1,1′-biphenyl]-3,3′-diyl)bis(methylene))bis(oxy))bis(3-bromo-4,1-phenylene))bis(methylene))bis(piperidine-2-carboxylic acid)] | 0.1 to 10 nM | 222 to 226 °C
5 | O=C(O)[C@@H]1CCCCN1Cc1ccc(OCc2cccc(-c3cccc(COc4ccc(CN5CCCC[C@H]5C(=O)O)cc4Br)c3Cl)c2Cl)c(Br)c1 [Example 9, (2S,2′S)-1,1′-(((((2,2′-Dichloro-[1,1′-biphenyl]-3,3′-diyl)bis(methylene))bis(oxy))bis(3-bromo-4,1-phenylene))bis(methylene))bis(piperidine-2-carboxylic acid)] | 0.1 to 10 nM | 184 to 188 °C
6 | Cc1c(COc2ccc(CN3CCCC[C@H]3C(=O)O)cc2Cl)cccc1-c1cccc(COc2ccc(CN3CCCC[C@H]3C(=O)O)cc2Cl)c1C [Example 12, (2S,2′S)-1,1′-(((((2,2′-Dimethyl-[1,1′-biphenyl]-3,3′-diyl)bis(methylene))bis(oxy))bis(3-chloro-4,1-phenylene))bis(methylene))bis(piperidine-2-carboxylic acid)] | 11 to 100 nM | 184 to 188 °C
7 | COc1cc(OCc2cccc(-c3cccc(COc4cc(OC)c(CNCCO)c(OC)c4)c3C)c2C)cc(OC)c1CNCCO [Example 22, 2,2′-((((((2,2′-Dimethyl-[1,1′-biphenyl]-3,3′-diyl)bis(methylene))bis(oxy))bis(2,6-dimethoxy-4,1-phenylene))bis(methylene))bis(azanediyl))bis(ethan-1-ol)] | 11 to 100 nM | 86 to 90 °C
8 | Cc1c(COc2ccc(CN3CCCC[C@H]3C(=O)O)cc2C(F)(F)F)cccc1-c1cccc(COc2ccc(CN3CCCC[C@H]3C(=O)O)cc2C(F)(F)F)c1C [Example 13, (2S,2′S)-1,1′-(((((2,2′-Dimethyl-[1,1′-biphenyl]-3,3′-diyl)bis(methylene))bis(oxy))bis(3-(trifluoromethyl)-4,1-phenylene))bis(methylene))bis(piperidine-2-carboxylic acid)] | 0.1 to 10 nM | 287 to 291 °C
9 | Cc1c(COc2ccc(CN3CCCC[C@H]3C(=O)O)cc2F)cccc1-c1cccc(COc2ccc(CN3CCCC[C@H]3C(=O)O)cc2F)c1C [Example 19, (2S,2′S)-1,1′-(((((2,2′-Dimethyl-[1,1′-biphenyl]-3,3′-diyl)bis(methylene))bis(oxy))bis(3-fluoro-4,1-phenylene))bis(methylene))bis(piperidine-2-carboxylic acid)] | 110 to 1000 nM | 205 to 209 °C
10 | Cc1c(COc2ccc(CN3CCCC[C@H]3C(=O)O)cc2O)cccc1-c1cccc(COc2ccc(CN3CCCC[C@H]3C(=O)O)cc2O)c1C [Example 21, (2S,2′S)-1,1′-(((((2,2′-Dimethyl-[1,1′-biphenyl]-3,3′-diyl)bis(methylene))bis(oxy))bis(3-hydroxy-4,1-phenylene))bis(methylene))bis(piperidine-2-carboxylic acid)] | 1010 to 30000 nM | 143 to 147 °C
11 | CC(=O)NCCNCc1ccc(OCc2cccc(-c3cccc(COc4ccc(CNCCNC(C)=O)cc4Br)c3C)c2C)c(Br)c1 [Example 6, N,N′-(((((((2,2′-Dimethyl-[1,1′-biphenyl]-3,3′-diyl)bis(methylene))bis(oxy))bis(3-bromo-4,1-phenylene))bis(methylene))bis(azanediyl))bis(ethane-2,1-diyl))diacetamide] | 11 to 100 nM | 95 to 99 °C
12 | C#Cc1cc(CN2CCCC[C@H]2C(=O)O)ccc1OCc1cccc(-c2cccc(COc3ccc(CN4CCCC[C@H]4C(=O)O)cc3C#C)c2C)c1C (as salt: trifluoroacetic acid salt) [Example 26, (2S,2′S)-1,1′-(((((2,2′-Dimethyl-[1,1′-biphenyl]-3,3′-diyl)bis(methylene))bis(oxy))bis(3-ethynyl-4,1-phenylene))bis(methylene))bis(piperidine-2-carboxylic acid) di-trifluoroacetic acid salt] |  | 175 °C (dec.)
13 | Cc1c(COc2ccc(CN3CCCC[C@H]3C(=O)O)cc2C(F)F)cccc1-c1cccc(COc2ccc(CN3CCCC[C@H]3C(=O)O)cc2C(F)F)c1C (as salt: trifluoroacetic acid salt) [Example 29, (2S,2′S)-1,1′-(((((2,2′-Dimethyl-[1,1′-biphenyl]-3,3′-diyl)bis(methylene))bis(oxy))bis(3-(difluoromethyl)-4,1-phenylene))bis(methylene))bis(piperidine-2-carboxylic acid) di-trifluoroacetic acid salt] |  | 142 to 146 °C
14 | Cc1c(COc2ccc(CN[C@@H](C)C(=O)O)cc2Br)cccc1-c1cccc(COc2ccc(CN[C@@H](C)C(=O)O)cc2Br)c1C (as salt: trifluoroacetic acid salt) [Example 15, (2S,2′S)-2,2′-((((((2,2′-Dimethyl-[1,1′-biphenyl]-3,3′-diyl)bis(methylene))bis(oxy))bis(3-bromo-4,1-phenylene))bis(methylene))bis(azanediyl))dipropionic acid di-trifluoroacetic acid salt] |  | 243 to 247 °C
15 | CSc1cc(CN2CCCC[C@H]2C(=O)O)ccc1OCc1cccc(-c2cccc(COc3ccc(CN4CCCC[C@H]4C(=O)O)cc3SC)c2C)c1C (as salt: trifluoroacetic acid salt) [Example 28, (2S,2′S)-1,1′-(((((2,2′-Dimethyl-[1,1′-biphenyl]-3,3′-diyl)bis(methylene))bis(oxy))bis(3-(methylthio)-4,1-phenylene))bis(methylene))bis(piperidine-2-carboxylic acid) di-trifluoroacetic acid salt] |  | 134 to 138 °C
16 | Cc1c(COc2ccc(CN(CC(=O)O)CC(=O)O)cc2Br)cccc1-c1cccc(COc2ccc(CN(CC(=O)O)CC(=O)O)cc2Br)c1C (as salt: trifluoroacetic acid salt) [Example 30, 2,2′,2″,2′″-((((((2,2′-Dimethyl-[1,1′-biphenyl]-3,3′-diyl)bis(methylene))bis(oxy))bis(3-bromo-4,1-phenylene))bis(methylene))bis(azanetriyl))tetraacetic acid di-trifluoroacetic acid salt] |  | 223 to 227 °C
17 | Cc1c(COc2ccc(CN[C@H](C)C(=O)O)cc2Br)cccc1-c1cccc(COc2ccc(CN[C@H](C)C(=O)O)cc2Br)c1C (as salt: trifluoroacetic acid salt) [Example 16, (2R,2′R)-2,2′-((((((2,2′-Dimethyl-[1,1′-biphenyl]-3,3′-diyl)bis(methylene))bis(oxy))bis(3-bromo-4,1-phenylene))bis(methylene))bis(azanediyl))dipropionic acid di-trifluoroacetic acid salt] |  | 186 to 190 °C
18 | Cc1c(COc2ccc(CN[C@@H](C(=O)O)[C@H](C)O)cc2Br)cccc1-c1cccc(COc2ccc(CN[C@@H](C(=O)O)[C@H](C)O)cc2Br)c1C (as salt: trifluoroacetic acid salt) [Example 18, (2R,2′R,3S,3′S)-2,2′-((((((2,2′-Dimethyl-[1,1′-biphenyl]-3,3′-diyl)bis(methylene))bis(oxy))bis(3-bromo-4,1-phenylene))bis(methylene))bis(azanediyl))bis(3-hydroxybutanoic acid) di-trifluoroacetic acid salt] |  | 227 to 231 °C
19 | Cc1c(COc2ccc(CN(CCO)CCO)cc2Br)cccc1-c1cccc(COc2ccc(CN(CCO)CCO)cc2Br)c1C (as salt: trifluoroacetic acid salt) [Example 31, 2,2′,2″,2′″-((((((2,2′-Dimethyl-[1,1′-biphenyl]-3,3′-diyl)bis(methylene))bis(oxy))bis(3-bromo-4,1-phenylene))bis(methylene))bis(azanetriyl))tetrakis(ethan-1-ol) di-trifluoroacetic acid salt] |  | 118 to 122 °C
